# In patent US20010008891A1, “PHARMACEUTICAL COMPOSITIONS COMPRISING A XANTHINE AND A CATECHIN” (priority 1998, published 2001):
# Test system: human platelet rich plasma
# Assay: ADP induced platelet aggregation test in human platelet rich plasma
# Type: cell-based
# Protocol: The antiplatelet aggregatory activity was measured using human platelet rich plasma as described below, and in Subbiah et al. Brazilian Journal of Medical and Biological Research 1988; 21: 535-538.
# Platelet-rich plasma (PRP) was obtained by centrifuging blood collected in 3.8% trisodium citrate (9:1, v/v) from human volunteers or from the blood bank for 15 minutes at 700 rpm. Remaining blood was centrifuged at 2500 rpm for 25 minutes to obtain platelet-poor plasma (PPP). The platelets were quantified with an electronic counter (Coulter Electronics, Inc., Hialeah, Fla.). The platelet count was adjusted to 300,000-350,000/mm^3 with PPP, and 0.45 ml used in each test of aggregation.
# ADP (Sigma Chemical Co. St. Louis, Mo.) (0.1 mg/ml), and arachidonic acid (NuCheck Pre, Elysian, Minn.) (1.0 mg/ml in 20 mM Na2CO3) were used as aggregatory agents. Samples were warmed to 37° C. with stirring for approximately two minutes prior to the addition of 50 μl of aggregating agents. Guarana (or its fractions) or caffeine (alone or in combination with catechins) were added before the addition of ADP or arachidonic acid. The change in percentage light transmission was recorded with a dual aggregometer (Chrono-Log Co, Havertown, Pa.) after addition of aggregation agents.
compound,measurement,value
Cn1c(=O)c2c(ncn2C)n(C)c1=O [caffeine],platelet aggregation inhibitory activity (in words),only weakly active
